Measured values reported in US20110312984A1, “STAT3 INHIBITORS” (priority 2008, published 2011).

Experiments:
[1] = system: triple negative human breast cancer xenograft; test: Triple-negative human breast cancer xenograft, MSFE after two days of treatment; assay type: in vivo, SCID Beige mice; settings: 250 mcg, n=3, P<0.05
From the text: A tumor line derived from a “triple negative” (ER-negative, PgR-negative, and HER-2 negative) human breast cancer biopsy specimen was transplanted into immunocompromised SCID Beige mice. The animals (n=3) received two doses of vehicle control, 2 different doses of Cpd 188 (125 or 250 mcg), a G-quartet oligodeoxynucleotide (GQ-ODN, T40214; GQ-I) previously determined to target Stat3 (Jing et al., 2004) and a control non-specific ODN (GQ-II) each at two doses (125 or 250 mcg). The animals were sacrificed after only two days of treatment, and MSFE determined.
Xenograft assays. One can use two xenografts developed from human breast cancer biopsies that express activated p-Stat3 by IHC. From these established xenograft lines, for each of the top 5 inhibitors, the following studies may be undertaken: a) short term experiments with stem cell inhibitors at two doses vs. vehicle control and b) the optimal dose of the combination of chemotherapy with each of the five stem cell inhibitors.
a) Short term (2-day) experiments: One can test the five inhibitors at 2 doses. […]
b) Long-term (2-week studies) experiments: One can assess the effect of the self-renewal inhibitor on tumor growth and stem cell behavior. […] Size of the xenografts is monitored longitudinally by caliper measurement using the RECIST criteria for assessment of tumor response. […]

[2] = system: MDA-MB-453; test: Breast cancer cell line apoptosis assay (nucleosome ELISA); assay type: cell-based; settings: Homo sapiens, MDA-MB-453, 24 h
Method: (§1) Breast cancer cell line apoptosis assay. Human breast carcinoma cell lines MDA-MB-468, MDA-MB-231, MBA-MD-435 and MCF7 were kindly provided by Dr. Powel H. Brown (Breast Cancer Center, Baylor College of Medicine). Breast cancer cell line, MDA-MB-453 was kindly provided by Dr. Shou Jiang (Breast Cancer Center, Baylor College of Medicine). All cell lines were grown in DMEM medium supplemented with 10% fetal bovine serum (FBS), 25,000 units penicillin G, 25,000 ug streptomycin, and 131.4 mg L-Glutamine and cultured in the incubator under the condition of 95% air, 5% CO2 at 37° C. (Garcia et al., 2001). Cells were seeded at 2,500 cells/cm^2 into 12-well plates. At 80% confluency, cells were washed with PBS and supplemented with fresh medium containing compound or the topoisomerase I-inhibitor, camptothecin, at 0, 0.1, 03, 1, 3, 10, 30, 100, 300 µM. At 24 hours, treatment was terminated by removing the medium from each well. Cells were lysed with cell lysis buffer (600 μl for 30 minutes at 25° C.). Cell lysate (200 μl) was centrifuged at 200×g for 10 minutes and 20 μl of each supernatant was assayed for nucleosomes using the Cell Death Detection ELISA (Roche Applied Science) as described by the manufacturer. The percent maximum nucleosome level was calculated by dividing the nucleosome level by the maximum nucleosome level achieved in the assay and multiplying by 100. […]

[3] = system: MCF7; test: as above; assay type: cell-based; settings: Homo sapiens, MCF7, 24 h
Method: as §1

- EC50 [2]: 17.2 µM
- EC50 [3]: 15.5 µM
Structure (SMILES): O=C(O)CSc1cc(NS(=O)(=O)c2ccc(C(=O)O)cc2)c2ccccc2c1O [Cpd188, 4-[({3-[(carboxymethyl)thio]-4-hydroxy-1-naphthyl}amino)sulfonyl]benzoic acid]
- reduction in MSFE compared to control [1]: significant reduction
